This is an account of results in patent US5977144A (priority 1997, dated 1999).

Assay [1] concerns the target alpha7 receptor (high affinity alpha-bungarotoxin binding, rat brain membranes) (Rattus norvegicus, UniProt Q05941). In words: biochemical. Conditions: for IC50: rat brain membranes, read-out: IC50, [125I]α-bungarotoxin binding.
The target in assay [2] is T1, alpha4beta2 receptor (cytisine binding, rat brain membranes) (Rattus norvegicus, UniProt P09483+P12390).
T1 construct: from tissue; host or cells: rat brain membranes
T1 sequence (P09483 31-630): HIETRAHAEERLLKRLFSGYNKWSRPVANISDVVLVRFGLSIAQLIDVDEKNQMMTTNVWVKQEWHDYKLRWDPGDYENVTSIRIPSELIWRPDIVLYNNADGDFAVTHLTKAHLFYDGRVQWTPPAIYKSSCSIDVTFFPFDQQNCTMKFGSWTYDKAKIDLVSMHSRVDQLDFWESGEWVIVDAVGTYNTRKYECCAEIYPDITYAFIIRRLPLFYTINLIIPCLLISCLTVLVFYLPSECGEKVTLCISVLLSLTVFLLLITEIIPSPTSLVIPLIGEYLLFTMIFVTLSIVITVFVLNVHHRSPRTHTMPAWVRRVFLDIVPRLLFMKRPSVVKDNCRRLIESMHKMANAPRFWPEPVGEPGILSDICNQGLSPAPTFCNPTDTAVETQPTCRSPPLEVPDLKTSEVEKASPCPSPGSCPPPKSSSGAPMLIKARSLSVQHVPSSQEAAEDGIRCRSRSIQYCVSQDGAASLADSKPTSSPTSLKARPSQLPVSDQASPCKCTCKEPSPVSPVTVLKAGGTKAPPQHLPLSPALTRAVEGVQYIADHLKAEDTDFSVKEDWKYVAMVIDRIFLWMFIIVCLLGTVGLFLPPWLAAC
T1 sequence (P12390 25-500): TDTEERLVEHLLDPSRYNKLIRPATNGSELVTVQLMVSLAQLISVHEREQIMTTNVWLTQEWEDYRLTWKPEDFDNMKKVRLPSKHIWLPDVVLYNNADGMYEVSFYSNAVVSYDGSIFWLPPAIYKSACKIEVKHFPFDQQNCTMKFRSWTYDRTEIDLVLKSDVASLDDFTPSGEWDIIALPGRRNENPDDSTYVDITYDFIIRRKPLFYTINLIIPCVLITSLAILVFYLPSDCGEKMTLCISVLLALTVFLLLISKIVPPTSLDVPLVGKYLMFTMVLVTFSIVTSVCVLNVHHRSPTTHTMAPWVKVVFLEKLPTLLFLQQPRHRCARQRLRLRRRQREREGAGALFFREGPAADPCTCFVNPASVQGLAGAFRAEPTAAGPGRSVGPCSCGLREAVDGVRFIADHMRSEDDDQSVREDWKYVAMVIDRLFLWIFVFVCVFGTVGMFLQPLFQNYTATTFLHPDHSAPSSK
In words: biochemical. Conditions: 1 μM (Table 2); read-out: alpha4beta2 binding: % inhibition of cytistine binding. The source says:
Further, the cinnamylidene-anabaseines displaced high affinity cytisine binding to rat brain membranes with lower affinity than other types of benzylidene-anabaseines. These observations are consistent with the cinnamylidene-anabaseines having some selectivity for alpha7 receptor subtypes over other types of nicotinic receptors, especially alpha4beta2 receptors, based on the types of receptors to which alpha-bungarotoxin and cytisine bind to in brain.

Assay [3] has as its target T2, rat alpha7 receptor (Rattus norvegicus, UniProt Q05941). In words: cell-based. Conditions: for α7 receptor activation (in words): oocyte expression system; for EC50: oocytes, read-out: α7 EC50. The method, then: FIG. 13A. Effects of chronic injections of DMXB or nicotine on high affinity [^3 H]ACh or [^125 I]α-bungarotoxin (BTX) binding in rat neocortices. Adult male rats were injected with saline vehicle, 1 mg/kg DMXB or 0.2 mg/kg nicotine (NIC) (IP) daily for 2 weeks. At that time, neocortices were removed and assayed for high affinity [^3 H]ACh or [^125 I]α-bungarotoxin binding as described in the text. […] Responses of rat α7 ACHR to 3-CA, 2-MeOCA and 4-MeOCA. Concentration-response relationships for the peak agonist activated currents of oocytes injected with RNA coding for the rat α7 subunit. All responses were initially measured relative to the individual oocyte-response to 500 μM ACh, applied 5 min prior to drug-application. Responses were normalized relative to the maximum response obtainable with ACh so that a response of 1 represents full efficacy. The ratio of 500 μM ACh control response to ACh maximum was taken from Papke et al., 1997.
(§1) Oocytes were prepared and recordings made as described previously (de Fiebre, et al., 1995). Frogs were anesthetized by submersion in 0.1% (3)-aminobenzoic acid ethyl ester and several lobes of the ovary surgically removed through a small incision in the abdomen wall. Oocytes were freed from the follicle cells by treatment with collagenase (in calcium-free Barth's solution: 88 mM NaCl, 1 mM KCl, 15 mM Hepes pH 7.6, 0.33 mM MgSO4, 0.1 mg/ml gentamicin sulfate) for 2 hr at room temperature and Stage 5 oocytes were isolated. Oocytes were rinsed and stored at 18° C. in Barth's saline (88 mM NaCl, 1 mM KCl, 15 mM Hepes pH 7.6, 0.3 mM Ca(NO3)2, 0.41 mM CaCl2, 0.82 mM MgSO4, 0.1 mg/ml gentamicin sulfate) before and after microinjection with RNA. Microinjection was conducted with a Drummond Scientific "Nanoject Variable" automatic injector. Oocytes were injected with a 50 nl solution of specified rat nicotinic subunit mRNA species (2-10 mg/ml; derived from the cDNA containing HIP 306 plasmid kindly provided by Dr. Jim Boulter, Salk Institute) and incubated 2-7 days at 18° C. before electrophysiological recording. electrophysiological recordings, oocytes were perfused in a Warner Instruments RC-8 recording chamber with a perfusion solution containing 115 mM NaCl, 2.5 mM KCl, 10 mM Hepes pH 7.2, 1.8 mM CaCl2 and 1 μM atropine to block muscarinic responses. Perfusion was continuous at a rate of 10 ml/min. Drags were diluted in perfusion solution and applied using a solenoid valve to switch from perfusion to drug solutions. Current responses to drug administration were studied under two electrode voltage clamp at a holding potential of -70 mV using a Dagan Corp. TEV-200 voltage clamp connected to a 386-SX IBM computer using a TL-1 DMA interface (Axon Instruments). Micropipettes were filled with 3 M KCl and had resistances of 0.5-2 MOhms. Drug responses are analyzed with PClamp software (Axon Instruments). Oocytes with resting potentials of less than -30 mV were rejected.

Assay [4] has as its target T3, rat alpha4beta2 receptor (Rattus norvegicus, UniProt P09483+P12390). In words: Activation of alpha4beta2 receptors expressed in Xenopus oocytes. Type of assay: cell-based. Conditions: Table 4; read-out: Oocytes Agonist α4. As to the method:
FIG. 14A. Responses of α4β2 ACHR to 3-CA, 2-MeOCA or 4-MeOCA. Concentration-response relationships for the peak agonist activated currents of oocytes injected with RNA coding for rat α4β2 subunits. Responses are first expressed relative to the response to 10 μM ACh, applied 5 min before drug-application, then normalized to the maximum response obtainable with ACh so that a response of 1 represents full efficacy. The ratio between 10 μM ACh and maximum ACh response was determined in separate experiments.
as §1

The target in assay [5] is T2, rat alpha7 receptor. In words: cell-based. The arrangement: Oocytes Antagonist: unit not given here. Conditions: for IC50: ACh applied 5 min after compound, read-out: IC50, antagonism subsequent to agonist activity; for Oocytes Antagonist: Table 4; for alpha 7 antagonism: % of antagonism of acetylcholine administered after drug: xenopus oocytes. The method, then: FIG. 13B. Effects of chronic injections of DMXB or nicotine on high affinity [^3 H]ACh or [^125 I]α-bungarotoxin (BTX) binding in rat neocortices. Adult male rats were injected with saline vehicle, 1 mg/kg DMXB or 0.2 mg/kg nicotine (NIC) (IP) daily for 2 weeks. At that time, neocortices were removed and assayed for high affinity [^3 H]ACh or [^125 I]α-bungarotoxin binding as described in the text. […] Responses of rat α7 AChR to 3-CA, 2-MeOCA and 4-MeOCA. […] All responses are expressed relative to the oocyte-response to 500 μM ACh applied 5 min prior to the experimental agonist application.
as §1
(§2) Antagonist properties subsequent to agonist activity were measured as a decrease in responsiveness to ACh applied 5 min after compound-application, normalized to ACh application instead of the anabaseine-derivative (FIG. 13A AND FIG. 13B).

In assay [6] the target is T3, rat alpha4beta2 receptor. In words: Antagonism of alpha4beta2 receptors in oocytes (residual inhibition of ACh response after drug). Conditions: xenopus oocytes. Type of assay: cell-based. As to the method: as §1, with “Micropipettes were filled with 3 M KCl and had resistances of 0.5-2 MOhms.” left out, “Oocytes with resting potentials of less than -30 mV were rejected.” left out
as §2

Assay [7] relates to PC12 cells. The assay is classed as cell-based. Conditions: for neurite protection during NGF-deprivation (in words): 10 μM; for Neurite Counts: 10 μM (NGF 100 ng/ml), 4 days after removal of serum and NGF, mean±SEM, * p<0.05. The method, then: PC12 cell-culture methods were modified from Greene and Tischler (1976). Cells were plated at 30-40% confluence and grown in Dulbecco's Modified Eagle Medium containing 10% heat-inactivated horse serum, 5% fetal bovine serum, 100 units/ml penicillin, 100 μg/ml streptomycin and 0.5 mM 1-glutamine. Cultures were maintained at 37° C., […] /6% CO2 and 90-92% humidity in culture plates pre-coated with poly-1lysine (10 g/L). Cultures were maintained for 7 days in serum-supplemented medium to which 100 ng/ml rat 2.5S NGF was added at day 1. On day 7, conditioned medium was replaced serum-free medium containing specified drugs. Four days later, cell density was estimated using the NIH Image program version 1.47 and number of neurite-expressing cells counted manually in blind fashion as described previously (Martin et al., 1994). A Nikon inverted microscope (100× magnification) was attached to a Mac II computer via a monochrome video camera (Cohu, Inc., San Diego, Calif.). Four random areas were counted per plate and there were 4 plates per treatment group, unless otherwise indicated. Neurites were defined as processes at least 2× the length of the perikaryon. To assess the reliability of the image analyses, a reticle was used for direct quantification of cells in the same view as the one analyzed in random samples.
PC12 cells were differentiated for 1 week with NGF. Drugs were administered for the 4 day interval after removal of serum and NGF. Neuites were counted and expressed as the mean±SEM of at least 3 plates/group.

The target of assay [8] is T3, rat alpha4beta2 receptor. The experiment in a line: Activation of alpha4beta2 receptors expressed in Xenopus oocytes. Type of assay: cell-based. Conditions: read-out: alpha4beta2 activation: % response observed with 10 μM acetylcholine.
Assay [9] relates to PC12 cells. Type of assay: cell-based. Conditions: Table 4.
Assay [10] addresses T2, rat alpha7 receptor. Conditions: cited from earlier work.
In assay [11] the target is T2, rat alpha7 receptor. Conditions: literature; cited from earlier work.
Assay [12] has as its system animal models of learning and memory. Conditions: animals; cited from earlier work.
For assay [13], the system named is alpha7 nicotinic receptors.
Assay [14] has as its system cholinesterase-staining cells in the nucleus basalis. Conditions: rat, in vivo.
Protocol: Passive avoidance behavior was measured in nucleus basalis lesioned rats after intraperitoneal (IP) injections of drugs (base weight) or 0.9% saline diluent. For lesions, male 5 month old Sprague Dawley rats were anesthetized with 30 mg/kg sodium pentobarbital (IP) and then infused bilaterally with 1 μl of 5 μg/μl ibotenic acid in phosphate buffered saline, pH 7.4, into the nucleus basalis as described previously (17). Infusion coordinates were anterior 7.0 mm, lateral 2.6 mm and vertical 6.5 mm according to Paxinos and Watson (Paxinos and Watson, 1986).
Histological assessments of the ibotenic acid placements in the nucleus basalis were made after behavioral measurements, using cholinesterase staining in formalin-fixed tissues.
Setting [15] is: 1 μM (Table 2), read-out: alpha7 binding: % inhibition of alphabungarotoxin binding.
The mark [16] stands for this setting: Table 4, read-out: Receptor Binding α7.
[17] abbreviates: Table 4, read-out: Oocytes Agonist α7.
[18] abbreviates: read-out: alpha7 activation: % response observed with 500 μM acetylcholine.

SMILES strings stand for the structures. “Also recorded” adds a separate entry of the source. Where two headings read alike, the source gives them in different places. A value given as a limit tells only on which side of the number the result lay.

T2 sequence (Q05941 23-502): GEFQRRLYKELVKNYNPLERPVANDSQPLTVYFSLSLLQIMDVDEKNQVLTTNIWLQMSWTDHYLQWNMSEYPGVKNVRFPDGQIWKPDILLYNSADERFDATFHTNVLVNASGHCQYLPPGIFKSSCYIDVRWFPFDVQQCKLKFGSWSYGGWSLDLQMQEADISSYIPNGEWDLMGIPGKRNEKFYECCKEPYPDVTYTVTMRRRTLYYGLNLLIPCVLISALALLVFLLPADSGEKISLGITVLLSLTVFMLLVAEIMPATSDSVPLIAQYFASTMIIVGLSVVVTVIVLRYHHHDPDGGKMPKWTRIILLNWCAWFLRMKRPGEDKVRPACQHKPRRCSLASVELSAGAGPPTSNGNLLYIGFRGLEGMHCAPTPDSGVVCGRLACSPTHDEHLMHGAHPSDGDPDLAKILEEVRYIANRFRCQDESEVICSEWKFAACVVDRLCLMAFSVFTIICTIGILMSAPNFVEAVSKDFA
Chain of alpha7 receptor (high affinity alpha-bungarotoxin binding, rat brain membranes) (Q05941 23-502): as above
T3 sequence (P09483 31-630): as the sequence (P09483 31-630) above
T3 sequence (P12390 25-500): as the sequence (P12390 25-500) above

A word on the IC50: it is the concentration at which inhibition is half-maximal. A word on the EC50: it is the concentration that produces a half-maximal response. `C(=C\c1ccccc1)/C=C1\CCCN=C1c1cccnc1` [3-CA, E,E-3-(Cinnamylidene)anabaseine]: the inhibition at 1 µM in assay [1] (setting [15]) came out at 94.7%; in assay [1] (setting [16]), 94.7%; in [2], 6.2%. The values for the half-inhibitory concentration (IC50) (in assay [1]; on rat alpha7 receptor [5]) were 0.08 µM and 15 ± 6 µM, respectively. Besides, on rat alpha7 receptor [3], the “selectivity α7 over α4β2 (in words)” value is recorded as “selectively activate α7 receptors over α4β2”. For the same compound, the Emax was 92% at rat alpha7 receptor [3] (setting [17]), 92% at rat alpha7 receptor [3] (setting [18]), 2.6% on rat alpha4beta2 receptor [4] and less than 3% on rat alpha4beta2 receptor [8]. In addition, the “α7 receptor activation (in words)” value on rat alpha7 receptor [3] is listed as “fully efficaciously”. Also, the EC50 on rat alpha7 receptor [3] came to 3.2 ± 0.7 µM. The “inhibition of α7 receptors, estimated” value on rat alpha7 receptor [5] (10 μM, estimated from oocyte results) is on record as “less than 20%”. Further, the inhibition at 10 µM on rat alpha7 receptor [5] (10 μM, ACh application 5 min later, read-out: long term inhibition of α7 receptors) was less than 20%. Further, at rat alpha7 receptor [5], the “Oocytes Antagonist” value is reported as “.50”. Also, the “alpha 7 antagonism: % of antagonism of acetylcholine administered after drug” value on rat alpha7 receptor [5] is 45. Also, the “alpha4beta2 antagonism: % of antagonism of acetylcholine administered after drug” value at rat alpha4beta2 receptor [6] amounted to 10. In addition, the “neurite protection during NGF-deprivation (in words)” value with PC12 cells [7] is “neuroprotective against neurite-loss during NGF-deprivation; also recorded: protected against NGF-deprivation neurite loss; also recorded: exhibited cytoprotective activity; also recorded: effective”. For the same compound, in the assay with PC12 cells [7], the “Neurite Counts” value worked out at 185 ± 19. Further, the “PC12 Cyto.” value in the assay with PC12 cells [9] is recorded as “+?”.

With `COc1ccc(/C=C/C=C2\CCCN=C2c2cccnc2)cc1` [4-MeOCA, E,E-3-(4-Methoxycinnamylidene)anabaseine], the inhibition at 1 µM in assay [1] (setting [15]) was 94.1%. Besides, in assay [1] (setting [16]), the inhibition at 1 µM came out at 94.1%. Moreover, the IC50 in [1] was found to be 0.054 µM. For the same compound, the inhibition at 1 µM in [2] was determined as 32%. In addition, on rat alpha7 receptor [3], the “selectivity α7 over α4β2 (in words)” value is on record as “selectively activate α7 receptors over α4β2”, the “times less potent (α7 activation)” value is reported as 2-3 times, the “α7 receptor activation (in words)” value was “fully efficaciously” and the 50% effective concentration (EC50) turned out to be 15.9 ± 7.9 µM. Further, the Emax at rat alpha7 receptor [3] (setting [17]) is 45%. Moreover, the Emax on rat alpha7 receptor [3] (setting [18]) was determined as 45%. The Emax at rat alpha4beta2 receptor [4] is less than 5%. Moreover, on rat alpha7 receptor [5], the 50% inhibitory concentration (IC50) is 5 ± 2.3 µM, the “Oocytes Antagonist” value is reported as “.104” and the “alpha 7 antagonism: % of antagonism of acetylcholine administered after drug” value is reported as 75. Moreover, the “alpha4beta2 antagonism: % of antagonism of acetylcholine administered after drug” value at rat alpha4beta2 receptor [6] came to 34. Further, in the assay on PC12 cells [7], the “neurite protection during NGF-deprivation (in words)” value is reported as “Neither 2-MeOCA nor 4-MeOCA elicited neurite-protection” and the “Neurite Counts” value is 155 ± 23. Besides, the Emax at rat alpha4beta2 receptor [8] was less than 2%.

For the compound `CN(C)c1ccc(/C=C/C=C2\CCCN=C2c2cccnc2)cc1` [DMAC, E,E-3-(4-dimethylaminocinnamylidene) anabaseine], the “α7 agonist activity (in words)” value on rat alpha7 receptor [10] (background/literature) is “fully efficacious and potent α7 agonist”. For the same compound, the “selectivity α7 over α4β2 / other nicotinic subtypes (in words)” value on rat alpha7 receptor [10] (literature) is “selectively activate α7 receptors over α4β2”. Further, on rat alpha7 receptor [11], the “long term inhibition / antagonism of α7 receptors (in words)” value is given as “long term inhibition of α7 receptors following activation; also recorded: potent antagonist activity”. The “memory-related performance (in words)” value in [12] is “memory-enhancing activity in rodents; also recorded: effective in this behavioral paradigm”.

Regarding `CCO` [ethanol], the “antagonism of nicotinic receptors by ethanol (in words)” value in assay [13] is “alpha7 nicotinic receptors were sensitive to antagonism by ethanol while other receptor types were not affected”.

With `N[C@H](C(=O)O)c1cc(=O)[nH]o1` [ibotenic acid], the “reduction of cholinesterase-staining cells in nucleus basalis” value in assay [14] is “over 80%”.
